Results as given in PMC11417994, “Cyclohexanediamine Triazole (CHDT) Functionalization Enables Labeling of Target Molecules with Al^18F/^68Ga/^111In” (Bioconjugate Chemistry, 2024).
Values joined by “and” are separate entries in the source; they are usually repeats but may differ in a detail not shown here. Identical values can stand only once.

Key:
[1] = n-Octanol/PBS distribution coefficient (logD7.4); assay type: physicochemical; details: Table S1 individual values
Experimental: The log D7.4 values were determined as follows: 500 μL of n-octanol and 450 μL of PBS (pH 7.4) were premixed prior to the addition of 50 μL of the respective radiolabeled compound. The mixture was vigorously stirred for 30 min at 22 °C, and thereafter centrifuged for 5 min at 7,500g at 22 °C. Aliquots of the n-octanol and the aqueous phases were transferred to measuring tubes, and the activity counts in both phases were measured in a gamma counter (Hidex Deutschland Vertrieb GmbH, Germany). The logarithm of the quotient of the activity counts from the n-octanol and the aqueous phase was calculated, which is equal to the log D7.4 value.

[2] = Serum stability assay in human serum (radio-TLC/radio-HPLC); assay type: in vitro ADME; details: 37 °C, radio-TLC; for Percentage of intact radioligand after 3 h in human serum: Table 1 mean ± SEM, Table S1 individual values
Experimental: To investigate the serum stability of the radiolabeled CHDTA-PSMA-1/2/3, human serum (frozen, from male AB clotted whole blood; Sigma-Aldrich/Merck) was centrifuged for 5 min at 20,000g at 4 °C after thawing. The supernatant was sterile filtrated (filter pore 0.2 μm). Four parts serum and one part of radioligand were incubated at 37 °C with shaking. Aliquots were taken after 3 h and for the ^111In-labeled compounds also after 24 and 48 h, and residual intact radiolabeled compound was determined by radio-TLC and/or radio-HPLC. For analysis by radio-HPLC, the aliquots were mixed with Supersol (mixture for protein precipitation that consists of 20% ethanol, 0.5% Triton X-100, 5 mM EDTA and 0.1% saponin)[72] and kept on ice for 5 min. After centrifugation for 5 min at 20,000g at 4 °C, the supernatant was used for radio-HPLC analysis.

[3] = molecular target: T1, PSMA (Homo sapiens, UniProt Q04609); experiment: Competition binding assay, LNCaP cell homogenates, radioligand [177Lu]Lu-PSMA-617; details: nonlabeled compounds; [177Lu]Lu-PSMA-617 12 nM; 37 °C, 60 min; Table 2 mean (SEM), Table S3 individual experiments and mean
T1 construct: Detection of endogenous PSMA expression in LNCaP and PC3 cells relative to β-actin expression by Western; host or cells: LNCaP human prostate carcinoma cells (monolayer, spheroids or Potter-Elvehjem homogenates)
T1 sequence (Q04609 whole entry): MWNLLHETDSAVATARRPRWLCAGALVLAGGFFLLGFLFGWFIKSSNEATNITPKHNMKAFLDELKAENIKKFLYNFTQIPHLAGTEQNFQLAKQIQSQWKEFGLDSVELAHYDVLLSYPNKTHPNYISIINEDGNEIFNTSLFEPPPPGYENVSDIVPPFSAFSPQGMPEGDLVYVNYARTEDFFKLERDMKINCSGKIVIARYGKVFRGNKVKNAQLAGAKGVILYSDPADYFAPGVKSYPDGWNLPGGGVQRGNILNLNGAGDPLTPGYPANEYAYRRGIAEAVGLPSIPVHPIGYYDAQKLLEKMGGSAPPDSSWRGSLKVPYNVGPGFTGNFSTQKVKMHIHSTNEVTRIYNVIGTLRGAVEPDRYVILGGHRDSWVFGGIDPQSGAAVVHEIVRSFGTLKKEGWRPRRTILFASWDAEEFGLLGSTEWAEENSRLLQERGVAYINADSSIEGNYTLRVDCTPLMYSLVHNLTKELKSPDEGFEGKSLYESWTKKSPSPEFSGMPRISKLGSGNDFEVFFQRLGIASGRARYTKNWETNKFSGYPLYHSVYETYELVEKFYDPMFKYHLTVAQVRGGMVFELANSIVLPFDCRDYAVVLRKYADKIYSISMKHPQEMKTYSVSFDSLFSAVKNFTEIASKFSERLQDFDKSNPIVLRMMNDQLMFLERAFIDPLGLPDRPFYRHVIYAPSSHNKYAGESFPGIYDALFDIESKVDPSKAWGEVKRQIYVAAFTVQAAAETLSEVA
Experimental: The binding affinity of the nonlabeled CHDT-PSMA-1/2/3, PSMA-1007, PSMA-617, and KuE was assessed in competition binding assays using LNCaP cell homogenates (∼1 × 10^6 cells/mL using Potter-Elvehjem) and the radioligand [^177Lu]Lu-PSMA-617 (n = 5 for CHDT-PSMA-1; n = 4 for CHDT-PSMA-2/3; n = 2 for PSMA-1007; n = 8 for PSMA-617; n = 6 for KuE). […] The assays were performed in a final volume of 200 μL. The incubation was stopped by washing the homogenate with cold PBS four times using a filter (Whatman GF/C, 90 min presoaked in 0.3% polyethylenimine) in a cell harvester (Brandel, USA). The radioactivity bound to the filter was measured in a gamma counter. Filter binding was determined for adjacent samples without cell homogenate. The experiments were performed two to four times in triplicates or quadruplicates. Inhibitory constants (Ki) were derived from nonlinear regression according to the model of “One site – Fit Ki” as implemented in GraphPad Prism 10. The Kd value of [^177Lu]Lu-PSMA-617 was determined in saturation binding assays using LNCaP cell homogenates to be 15.2 (±2.1) nM.

[4] = molecular target: T1, PSMA; experiment: Saturation binding (surface-bound and internalized), intact LNCaP cells as monolayer
Excerpt: (§1) In addition to assessing the binding affinities for nonlabeled CHDT-PSMA-1/2/3, we sought to characterize the saturation binding of the Al^18F-, ^68Ga-, and ^111In-labeled compounds using LNCaP cells cultured in monolayers and as spheroids. The saturation binding curves for Al[^18F]F-CHDT-PSMA-1/2/3 are depicted in Figure 3, while the graphs for [^18F]PSMA-1007 and ^68Ga- and ^111In-labeled CHDT-PSMA-1/2/3 can be found in Figures S7–S9 in the Supporting Information. The binding parameters (Kd and Bmax) for Al[^18F]F-CHDT-PSMA-1/2/3 and [^18F]PSMA-1007 are summarized in Table 3 (for the ^68Ga- and ^111In-labeled compounds see Tables S4 and S5 in the Supporting Information). For the saturation binding assays, we recorded surface-bound radioligand (named “binding”), which refers to bound radioligand that can be removed by acid wash, and internalized or acid-resistant radioligand (named “internalization”), which refers to radioligand that remains cell-bound after acid wash. Consequently, two saturation binding plots were obtained and two sets of binding parameters (Kd/Bmax and Kd,int/Bmax,int) were derived.
(§2) For saturation assays in well plates, monolayers of LNCaP (sowing 5 × 10^4 cells/well in 48-well plates 2 days before the assay), as well as LNCaP spheroids were incubated with radiolabeled CHDT-PSMA-1/2/3 and PSMA-1007 (0.2 nM to 100 nM) with adjacent samples receiving KuE (0.8 mM) at 37 °C for 2 h. The number of experiments can be derived from the data in the Tables S4, S5, and S7 in the Supporting Information. After removing the incubation medium and washing of cells with ice-cold PBS (containing Mg^2+ and Ca^2+) the surface-bound activity was stripped with 4 °C cold acid-wash buffer (0.2 M glycine, 0.15 M NaCl, pH 3.0) for 10 min. The acid wash buffer was transferred from the wells to measuring tubes, as was the PBS buffer after washing once. Cytosolic activity (internalized radioligand) was determined after treatment with cell lysis buffer (1% SDS in 0.1 M NaOH) at 37 °C for 30 min. Cell surface and cytosolic activity were measured separately in a gamma counter. Time-depending internalization assays were performed only with cells in monolayer. The incubation (radioligand concentration 13 nM) for these assays was terminated after 10 min, 1 and 3 h, with ^111In and ^177Lu additionally after 24 and 48 h at 37 °C, respectively. During the internalization assays adjacent samples received KuE (0.8 mM) for PSMA blocking, methyl-β-cyclodextrin (MβCD; 3 mM) or KuE together with MβCD, 1 h before radioligand application. The number of experiments can be derived from the data of Figure S11 and associated table and from Table S8 in the Supporting Information.
(§3) Dissociations constants (Kd and Kd,int), as well as maximal binding capacities (Bmax and Bmax,int), were derived from specific binding data by nonlinear regression according to the model of “One site-specific binding” as implemented in GraphPad Prism 10. Protein content was determined using the bicinchoninic acid protein assay kit (Pierce, Thermo Scientific) to calculate the binding capacities in pmol/mg and for the time-depending internalization the internalized percent of administrated dose per μg protein (% AD/μg protein).

[5] = molecular target: T1, PSMA; experiment: Saturation binding (surface-bound and internalized), LNCaP spheroids
Excerpt: as §1
For the formation of spheroids, the LNCaP cells were incubated overnight in a normal culture bottle with biocompatible nanoparticles ([…] with 80 μL of a suspension consisting of Au, Fe2O3 and poly-L-lysine called Nanoshuttle, Greiner Bio-One GmbH, Germany). After harvesting and cell counting, 10,000 cells/well of a 24-well plate or 7,000 cells/well of a 96-well plate (cell-repellent plates) were sown. The well plates were placed on matching plates with button magnets (Greiner Bio-One GmbH, Germany). The magnetized LNCaP cells formed suitable spheroids that were used after 5 d.
as §2, §3

[6] = same conditions; cited from earlier work
[7] = molecular target: PSMA; design: method as in PMID 22369515; details: cited from earlier work
[8] = pH 7.4, radiolabel Al^18F, Table 1 mean ± SEM of three experiments
[9] = pH 7.4, radiolabel ^68Ga, Table 1 mean ± SEM
[10] = pH 7.4, radiolabel ^111In, Table 1 mean ± SEM
[11] = Al^18F-labeled conjugate or [18F]PSMA-1007, acid-resistant fraction, read-out: Kd,int (internalization)
[12] = Al^18F-labeled conjugate or [18F]PSMA-1007, surface-bound
[13] = Al^18F-labeled conjugate or [18F]PSMA-1007, surface-bound, 37 °C, 2 h, read-out: Kd (binding)
[14] = Al^18F-labeled conjugate or [18F]PSMA-1007, surface-bound, read-out: Kd (binding)
[15] = [111In]In-labeled conjugate, surface-bound

Compound	logD [1, 8]	logD [1, 9]	logD [1, 10]	Percentage of intact radioligand after 3 h in human serum ([2]; radiolabel Al^18F)	Percentage of intact radioligand after 3 h in human serum ([2]; radiolabel ^68Ga)	Percentage of intact radioligand after 3 h in human serum ([2]; radiolabel ^111In, 3 h)	Percentage of intact radioligand in human serum after 24 h (*) ([2]; radiolabel ^111In)	Percentage of intact radioligand in human serum after 48 h (**) ([2]; radiolabel ^111In)	Ki [3]	Kd [4, 11] [nM]	Bmax (binding) [4, 12] [pmol/mg]	Kd [4, 13] [nM]	Kd [5, 11] [nM]	Kd [5, 14] [nM]	Bmax,int (internalization) ([5]; [111In]In-labeled conjugate)	64Cu-transchelation in human serum [6]	other results
O=C(O)CCC(NC(=O)NC(CCCCNC(=O)Cn1cc(CN(CC(=O)O)[C@@H]2CCCC[C@H]2N(CC(=O)O)CC(=O)O)nn1)C(=O)O)C(=O)O (mixture of isomers) [CHDT-PSMA-1]	-3.6	-3.36	-4.23	98.9% and 99.0% and 98.8% and 98.9 ± 0.1%	98.8% and 94.4% and 96.6 ± 2.2 %	99.7% and 99.3% and 99.4% and 99.5 ± 0.1%	99.8% and 99.5% and 99.6 ± 0.1%	99.7% and 99.3% and 98.9% and 99.3 ± 0.2%	85.5 nM and 120 nM and 86.9 nM and 152 nM and 132 nM and 115 nM	18.4 ± 7.3	1.87 ± 0.57	26.4 ± 11	37.4 ± 10.7	41.5 ± 26.4	0.03 pmol/mg and 0.06 pmol/mg and 0.04 pmol/mg	–	Bmax (binding) [5, 12]: 1.49 ± 0.36 pmol/mg
O=C(O)CCC(NC(=O)NC(CCCCNC(=O)[C@@H](Cc1cccc2ccccc12)NC(=O)CCCCCn1cc(CN(CC(=O)O)[C@@H]2CCCC[C@H]2N(CC(=O)O)CC(=O)O)nn1)C(=O)O)C(=O)O (mixture of isomers) [CHDT-PSMA-2]	-3.34	-3.11	-3.44	99.3% and 98.7% and 99.1 ± 0.2%	97.7% and 97.4% and 97.0% and 97.6 ± 0.1%	99.6% and 98.3% and 98.6% and 98.8 ± 0.4%	98.9% and 98.8% and 97.6% and 98.4 ± 0.4%	99.9% and 98.5% and 97.6% and 98.7 ± 0.7%	48.1 nM and 71.2 nM and 40.5 nM and 34.5 nM and 49 nM	14.4 ± 4.8	1.33 ± 0.10	12.9 ± 4	15.7 ± 0.8	15.8 ± 4.4	0.20 pmol/mg and 0.10 pmol/mg and 0.15 pmol/mg	–	Bmax,int (internalization) ([4]; [111In]In-labeled conjugate): 0.25 pmol/mg and 0.17 pmol/mg and 0.21 pmol/mg; Bmax (binding) [5, 12]: 1.07 ± 0.13 pmol/mg; Bmax (binding) [5, 15]: 0.15 pmol/mg and 0.25 pmol/mg and 0.20 pmol/mg
O=C(O)CCC(NC(=O)NC(CCCCNC(=O)[C@H](Cc1ccc2ccccc2c1)NC(=O)[C@H]1CC[C@H](CNC(=O)CCCCn2cc(CN(CC(=O)O)[C@@H]3CCCC[C@H]3N(CC(=O)O)CC(=O)O)nn2)CC1)C(=O)O)C(=O)O (mixture of isomers) [CHDT-PSMA-3]	-3.43	-3.09	-3.87	99.2% and 99.6% and 99.3 ± 0.1%	98.6% and 99.6% and 99.3% and 99.1 ± 0.4%	99.5% and 98.8% and 99.2% and 99.2 ± 0.2%	98.9% and 99.6% and 99.1 ± 0.2%	99.9% and 99.5% and 98.7% and 99.4 ± 0.4%	7.65 nM and 3.21 nM and 9.15 nM and 12.6 nM and 8.1 nM	14.4 ± 7.3	2.18 ± 0.97	19.7 ± 8.4	36.4 ± 14.6	38.6 ± 25.8	0.31 pmol/mg and 0.33 pmol/mg and 0.32 pmol/mg	–	Bmax,int (internalization) ([4]; [111In]In-labeled conjugate): 0.65 pmol/mg and 0.49 pmol/mg and 0.57 pmol/mg; Bmax (binding) [4, 15]: 0.50 pmol/mg and 0.91 pmol/mg and 0.70 pmol/mg; Bmax,int (internalization) ([5]; [68Ga]Ga-labeled conjugate, only one assay): 0.75 pmol/mg; Bmax (binding) [5, 15]: 0.21 pmol/mg and 0.40 pmol/mg and 0.30 pmol/mg
O=C(O)CN1CCN(CC(=O)O)CCN(CC(=O)O)CCN(CC(=O)O)CC1 [DOTA]	–	–	–	–	–	–	–	–	–	–	–	–	–	–	–	only minimal	–
O=C(O)CN1CCN(CC(=O)O)CCN(CC(=O)O)CC1 [NOTA]	–	–	–	–	–	–	–	–	–	–	–	–	–	–	–	only minimal	–
O=C(O)CCc1ccc(O)c(CN(CCN(CC(=O)O)Cc2cc(CCC(=O)NCCCCCC(=O)NCCCC[C@H](NC(=O)N[C@@H](CCC(=O)O)C(=O)O)C(=O)O)ccc2O)CC(=O)O)c1 [PSMA-11]	–	–	–	–	–	–	–	–	–	–	–	–	–	–	–	–	Ki [7]: 12 nM
O=C(O)CN1CCCN(CC(=O)O)CCN(CC(=O)O)CCCN(CC(=O)O)CC1 [TETA]	–	–	–	–	–	–	–	–	–	–	–	–	–	–	–	only minimal	–
NC12CNCCNCC(N)(CNCCNC1)CNCCNC2 [diamSar]	–	–	–	–	–	–	–	–	–	–	–	–	–	–	–	only minimal	–
